Here are results for 2 molecules from patent US3935255A, “Phenylacetic acid derivatives” (Laboratoires Jacques Logeais, priority 1973, dated 1976).

The test system of series [1] is carrageenin-induced edema. As to the kind of experiment: Carrageenin-induced edema in rats (anti-inflammatory action). The format is in vivo. To be noted: Rattus norvegicus, po. The source says:
(§1) Said properties were evidenced in animals by means of conventional pharmacological tests.
(§2) Anti-inflammatory action:
carrageenin-induced edema in rats (cf. WINTER, RISLEY and MUSS, Proc. Soc. Exp. Biol. Med., 1962, 111, 544),

A short description of series [2]: Koster test (analgesic action). The format is in vivo. The conditions noted are these: po.
From the text: as §1
Analgesic action: Koster test (cf. KOSTER and ANDERSON. Feder. Proceed., 1959, 18, 412)

Series [3] in a line: LD50 (acute toxicity). The conditions noted are these: in vivo.
The test system of series [4] is fever induced by injection of barm. As to the kind of experiment: Antipyretic action against fever induced by injection of barm, in rats. It is filed as in vivo. The conditions noted are these: p.o.
From the text: as §1
Antipyretic action, against fever induced by injection of barm, in rats.

In series [5] the test system is adjuvant-induced polyarthritis. The series is described as follows: Adjuvant-induced polyarthritis in rats (anti-inflammatory action). The conditions noted are these: Rattus norvegicus, 336 h, p.o., oral dosage which decreases by at least 50% the manifestations of arthritis within 14 days. The format is in vivo.
From the text: as §1, §2
adjuvant-induced polyarthritis in rats, determination of the oral dosage (mg/kg/day) which decreases by at least 50% the manifestations of arthritis within 14 days.

The subject of series [6] is ultraviolet-induced erythema. As to the kind of experiment: Ultraviolet-induced erythema in guinea-pigs (anti-inflammatory action). The conditions noted are these: Cavia porcellus, po, read-out: UV-induced erythema ED50. The format is in vivo.
From the text: as §1, §2
ultraviolet-induced erythema in guinea-pigs (cf. WINTER, Arch. Int. Pharmaco., 1958, 116, 261),

Where two headings read alike, the source gives them in different places.

Broadly, the ED50 is the dose at which the effect has come halfway, by size or by number of responders. By LD50 is commonly meant the dose expected to kill half of the subjects tested. In turn, `CC(C(=O)O)c1ccc(C2=CC(=NO)CCC2)cc1` (stereo not drawn) [Example 1, 2-[4-(3'-Hydroxyimino-cyclohexen-1'-yl)-phenyl]propionic acid] returned an ED40 in series [1] of 2.2 mg/kg. For the same molecule, the ED50 in series [2] is 30 to 50 mg/kg. Further, the LD50 is over 100 mg/kg in series [3] (ip, I.P., read-out: LD50 I.P.) and over 100 mg/kg in series [3] (po, P.O., read-out: LD50 P.O.). The molecule further yielded an Antipyretic action in series [4] of 30 mg·kg.

Regarding `CC(C(=O)O)c1ccc(C2CCCC(=NO)C2)cc1` (stereo not drawn) [Example 2, 2-[4-(3'-Hydroxyimino-cyclohexyl)phenyl]propionic acid], the ED40 in series [1] came to 0.25 mg/kg. Also, the ED50 in series [2] was found to be 4.5 mg/kg; in series [5] it was 0.9 mg/kg; in series [6], 2 mg/kg. Moreover, the LD50 in series [3] (ip, I.P., read-out: LD50 I.P.) is over 200 mg/kg; in series [3] (po, P.O., read-out: LD50 P.O.) it was over 200 mg/kg. Besides, in series [4], the Antipyretic action amounted to 3 mg·kg.
